Source: patent US4600537A, “Preparation of (±) 4-demethoxy-6 (and-11-)-deoxydaunomycinone” (Farmitalia Carlo Erba S.p.A., priority 1981, dated 1986)
In brackets after ≈: the same amount, converted by molar mass. Several values for one entry are separate records, joined by “and”; a condition that tells them apart may be missing. Identical values can stand only once.

How the values were obtained:
[1] = system: Hela cells; test: Effect on Hela cells cloning activity (cytotoxic activity in vitro); format: cell-based; details: treatment for 24 hours; for IC50: read-out: Effect on Hela cells cloning activity, ID50; for Effect on Hela cells cloning activity, %: 1440 min; for activity at 0.1 µg/mL: dose 100 ng/ml
Experimental: The biological activity of the following compound was tested against Hela cells in vitro: […]

[2] = system: P388 ascitic leukemia; test: Effect against P388 leukemia in mice; parameters: LTS (long term survivors) / Toxic deaths (evaluated on the basis of zooptic findings): dose or concentration left out as unconfirmed; details: for antitumor activity (in words): P388 ascitic leukemia in mice
Experimental: The activity of the compounds 4-demethoxy-4'-epi-11-deoxydaunorubicin and 4-demethoxy-deoxy-daunorubicin was also tested against P388 ascitic leukemia in mice.

[3] = Homo sapiens, HeLa, 24 h, dose 6.2 ng/ml
[4] = Homo sapiens, HeLa, 24 h, dose 25 ng/ml

CC(=O)[C@]1(O)Cc2cc3c(c(O)c2[C@@H](O[C@H]2C[C@H](N)[C@@H](O)[C@H](C)O2)C1)C(=O)c1ccccc1C3=O [4-demethoxy-4'-epi-11-deoxydaunorubicin]
IC50 ([1]; Homo sapiens, HeLa): 0.04 µg/mL (≈ 0.0831 µM) | Effect on Hela cells cloning activity, % ([1]; dose 1.5 ng/ml): 78% and 109% | Effect on Hela cells cloning activity, % ([1]; dose 6.2 ng/ml): 60% and 105% | Effect on Hela cells cloning activity, % ([1]; dose 25 ng/ml): 56% and 82% | antitumor activity (in words) [2]: exert antitumor activity | LTS (long term survivors) ([2]; dose 6.6, ip on day 1): 0/10 | Toxic deaths (evaluated on the basis of zooptic findings) ([2]; dose 6.6, ip on day 1): 0/10 | LTS (long term survivors) ([2]; dose 10, ip on day 1): 0/10 | Toxic deaths (evaluated on the basis of zooptic findings) ([2]; dose 10, ip on day 1): 0/10 | LTS (long term survivors) ([2]; dose 15, ip on day 1): 0/10 | Toxic deaths (evaluated on the basis of zooptic findings) ([2]; dose 15, ip on day 1): 0/10

COc1cccc2c1C(=O)c1c(O)c3c(c(O)c1C2=O)C[C@@](O)(C(C)=O)C[C@@H]3O[C@H]1C[C@H](N)[C@H](O)[C@H](C)O1 [Daunorubicin, reference compound]
activity at 0.0031 µg/mL ([1]; Homo sapiens, HeLa, 24 h, dose 3.1 ng/ml): 104% | activity at 0.0125 µg/mL ([1]; Homo sapiens, HeLa, 24 h, dose 12.5 ng/ml): 65% | IC50 ([1]; Homo sapiens, HeLa): 0.015 µg/mL (≈ 0.0284 µM) | Effect on Hela cells cloning activity, % ([1]; dose 3.1 ng/ml): 115% | Effect on Hela cells cloning activity, % ([1]; dose 6.2 ng/ml): 86% and 150% and 93% and 101% | Effect on Hela cells cloning activity, % ([1]; dose 12.5 ng/ml): 83% and 80% and 77% and 79% | LTS (long term survivors) ([2]; dose 2.9, ip on day 1): 0/10 | Toxic deaths (evaluated on the basis of zooptic findings) ([2]; dose 2.9, ip on day 1): 0/10 | LTS (long term survivors) ([2]; dose 4.4, ip on day 1): 0/10 | Toxic deaths (evaluated on the basis of zooptic findings) ([2]; dose 4.4, ip on day 1): 0/10 | LTS (long term survivors) ([2]; dose 6.6, ip on day 1): 0/10 | Toxic deaths (evaluated on the basis of zooptic findings) ([2]; dose 6.6, ip on day 1): 3/10

C[C@@H]1O[C@@H](O[C@H]2C[C@](O)(C(=O)CO)Cc3cc4c(c(O)c32)C(=O)c2ccccc2C4=O)C[C@H](N)[C@H]1O [4-demethoxy-11-deoxy-4'-epidoxorubicin]
activity at 0.0062 µg/mL [1, 3]: 100% | activity at 0.025 µg/mL [1, 4]: 33% | activity at 0.1 µg/mL ([1]; Homo sapiens, HeLa, 24 h): 1% | activity at 0.4 µg/mL ([1]; Homo sapiens, HeLa, 24 h, dose 400 ng/ml): 0% | IC50 ([1]; Homo sapiens, HeLa): 0.02 µg/mL (≈ 0.0402 µM)

4-demethoxy-deoxy-daunorubicin
antitumor activity (in words) [2]: exert antitumor activity | LTS (long term survivors) ([2]; dose 4.4, ip on day 1): 0/10 | Toxic deaths (evaluated on the basis of zooptic findings) ([2]; dose 4.4, ip on day 1): 0/10 | LTS (long term survivors) ([2]; dose 6.6, ip on day 1): 0/10 | Toxic deaths (evaluated on the basis of zooptic findings) ([2]; dose 6.6, ip on day 1): 7/10 | LTS (long term survivors) ([2]; dose 10, ip on day 1): 0/10 | Toxic deaths (evaluated on the basis of zooptic findings) ([2]; dose 10, ip on day 1): 8/10

CC(=O)[C@]1(O)Cc2cc3c(c(O)c2[C@@H](O[C@H]2C[C@H](N)[C@H](O)[C@H](C)O2)C1)C(=O)c1ccccc1C3=O [4-demethoxy-11-deoxydaunorubicin]
activity at 0.0062 µg/mL [1, 3]: 112% | activity at 0.025 µg/mL [1, 4]: 50% | activity at 0.1 µg/mL ([1]; Homo sapiens, HeLa, 24 h): 0% | IC50 ([1]; Homo sapiens, HeLa): 0.025 µg/mL (≈ 0.0519 µM)

CC(=O)[C@]1(O)Cc2c(cc3c(c2O)C(=O)c2ccccc2C3=O)[C@@H](O[C@H]2C[C@H](N)[C@H](O)[C@H](C)O2)C1 [4-demethoxy-6-deoxydaunorubicin]
activity at 0.005 µg/mL ([1]; Homo sapiens, HeLa, 24 h, dose 5 ng/ml): 119% | activity at 0.01 µg/mL ([1]; Homo sapiens, HeLa, 24 h, dose 10 ng/ml): 73% | activity at 0.05 µg/mL ([1]; Homo sapiens, HeLa, 24 h, dose 50 ng/ml): 4% | activity at 0.25 µg/mL ([1]; Homo sapiens, HeLa, 24 h, dose 250 ng/ml): 0% | IC50 ([1]; Homo sapiens, HeLa): 0.017 µg/mL (≈ 0.0353 µM)
